Entries after “also recorded” stand apart in the source; their conditions may differ.
How the values were obtained:
[1] = test system: HEK293FT cells stably expressing FLAG-vector or FLAG-MAGE-A11; experiment: Cell viability, alamarBlue, HEK293FT cells; format: cell-based; conditions: HEK293FT FLAG-MAGE-A11 against FLAG-vector, 24 h; listed as SJ521054
Procedure: To assess cell viability after SJ521054 treatment, 1 × 10^4 cells/ml were treated with SJ521054 (0–40 μM) and incubated for 24 h prior to changing the media and adding alamarBlue (Thermo Fisher Scientific) and incubating for 4 h at 37 °C. Plates were read by measuring the fluorescence with excitation wavelength at 540 nm and emission wavelength at 590 nm on an Enspire plate reader.

[2] = test system: PCF11 degradation by MAGE-A11 in HEK293FT cells; experiment: PCF11 degradation by MAGE-A11, immunoblot in HEK293FT cells; format: cell-based
Procedure: HEK293FT, HeLa and DAOY cells were grown in DMEM (Gibco) supplemented with 10% (v/v) FBS (Hyclone), 2 mM L-glutamine, 100 units/ml penicillin, 100 units/ml streptomycin, and […] amphotericin B (Invitrogen). HEK293FT and DAOY cells were transfected with either HA-FLAG-vector, FLAG-MAGE-A11 wild-type or SBC mutants using Effectene (QIAGEN) according to the manufacturer’s protocol in 6 cm^2 plates. After 48 h, cells were selected with 1 µg/ml puromycin (Sigma) over 2 weeks.
For western blotting, samples in SDS sample buffer were resolved on SDS-PAGE gels and then transferred to nitrocellulose membranes prior to blocking in TBST with 5% (w/v) milk powder or 3% (w/v) bovine serum albumin and probing with primary and secondary antibodies (GE Healthcare). Primary antibodies were: anti-Myc (Sigma, #C3956), anti-FLAG (Sigma, #F3165), anti-HUWE1 (Novus Biologicals, #NB 100-652), anti-PCF11 (Bethyl Laboratories, #A303-706A), anti-GAPDH (Cell Signaling Technology, #2118), anti-TRIM28 (Abcam, #ab22553), anti-AMPKα1 (Cell Signaling Technology, #2795), and anti-MMS19 (Proteintech, #16015-1-AP) and Tb-anti-GST (Invitrogen, #PV3551). Secondary antibodies were: Donkey Anti-Rabbit IgG (GE Healthcare, NA934V) and Sheep Anti-Mouse IgG (GE Healthcare, NA931V). […]

[3] = test system: Caco-2 cells; experiment: High throughput Caco-2 permeability; format: in vitro ADME
Procedure: High throughput Caco-2 permeability was performed in the TranswellR 0.4 µm polycarbonate membrane 96-well system with modified methods. Caco-2 cells were maintained at 37 °C in a humidified incubator with an atmosphere of 5% CO2. The cells were cultured in 75 cm^2 flasks with Dulbecco’s Modified Eagle’s Medium (DMEM) containing 10% (v/v) FBS, 1% (v/v) non-essential amino acids (NEAA), 100 units/ml of penicillin, and 100 µg/ml of streptomycin. The Caco-2 cells were seeded onto inserts at a density of 2 × 10^4 cells/insert separately. The medium in the wells was exchanged each other day, and the trans epithelial electrical resistance (TEER) value was measured using an epithelial voltohm meter (Millipore, Billerica, Massachusetts). […] For transport experiments, each cultured monolayer on the 96-well plate was washed twice with a transport buffer (HBSS containing 25 mM HEPES, pH 7.4). The permeability assay was initiated by the addition of each compound solution (10 µmol/l) into inserts (apical side, A) or receivers (basolateral side, B). The Caco-2 cell monolayers were incubated for 2 h at 37 °C. Fractions were collected from receivers (if apical to basal permeability) or inserts (if basal to apical permeability), and concentrations were assessed by UPLC/MS (Waters; Milford, MA). All compounds were tested in triplicates. The A → B (or B → A) apparent permeability coefficients (Papp) of each compound were calculated using the equation, Papp = dQ/dt × 1/AC0, where dQ/dt equals the flux of a drug across the monolayer, A equals the total insert well surface area, and C0 is the initial concentration of substrate in the donor compartment. The efflux ratio was determined by dividing the Papp in the B-A direction by the Papp in the A-B direction.

SMILES	cell viability [1]	PCF11 protein levels / PCF11 degradation ([2]; HEK293FT cells stably expressing FLAG-MAGE-A11, 24 h, listed as SJ521054)	PCF11 protein levels ([2]; HEK293FT vector control cells, 24 h)	cell permeability in words [3]
FC(F)(F)c1ccc2c(NCCCNCc3ccc4[nH]ccc4c3)ccnc2c1 [SJ000521054-02]	reduces viability of; also recorded: decreased the viability of MAGE-A11 expressing DAOY and HEK293FT cells to a much greater extent than vector control MAGE-A11-negative cells	blocks PCF11 degradation by MAGE-A11; also recorded: stabilized PCF11 protein levels	had no effect	
c1ccc2c(NCCCNCc3ccc4[nH]ccc4c3)ccnc2c1 [SJ001008066-01]				cell permeable

Reference: paper PMC7529893, “Structural basis for substrate recognition and chemical inhibition of oncogenic MAGE ubiquitin ligases” (Nature Communications, 2020)
